# Patent publication US20200390095A1, “USE OF ERYTHRITOL OR COMPOSITIONS COMPRISING SAME AS MAMMAL-SAFE INSECTICIDES” (Drexel University, priority 2014, published 2020)
# Assays:
# fruit flies = assay: Longevity comparison of erythritol with other human-safe sweet alcohols; type: in vivo, Drosophila melanogaster; details: 1 M sweetener in standard fly food, 17 days; for longevity compared to sucrose control: log rank test
# Protocol: An experiment was conducted to compare the effectiveness of erythritol with other human-safe sweet alcohols: D-mannitol, maltitol, sucrose, and xylitol. The concentration of all sweet alcohols were 1M. Flies were raised for 17 days on standard fly food that contained 1 M concentrations of each sweetener treatment. Death of flies was recorded daily as before; each treatment was replicated on three vials of 10 flies each for 30 subjects/treatment. Differences in longevity were analyzed using the Kaplan-Meier survival analysis log rank test, making all pairwise comparisons among treatments.
# Drosophila melanogaster [1] = assay: Longevity assay of adult flies raised on food containing sweeteners; type: in vivo; details: repeat study with blue dye food
# Protocol: All animals were cultured at 25° C., kept at 50-60% humidity, and were raised under a standard 12:12 light dark cycle. For each experimental treatment, n=30 flies were tested in groups of 10 per tube, and three tubes per treatment. Tubes were kept on their side to minimize subject becoming mired in the food. Foods were replaced twice a week. The total number of fruit flies used for these experiments was 780, with 300 used for two initial trials testing mortality among store-brand sweeteners, 210 used for repeating this with blue dye and pure erythritol, 120 for choice trials and 150 for concentration trials.
# Standard Drosophila food for larval culturing consisted of water, cornmeal, yeast, molasses, and agar, as previously described (Chakraborty, et al., 2011, PLoS ONE 6: e20799). […] The addition of cornmeal and yeast assured the flies still received sufficient carbohydrates and protein in addition to any effects of the treatment additives.
# Drosophila food was combined with an equal weight/volume (0.0238 g/ml) of one non-nutritive sweetener (TRUVIA, EQUAL, SPLENDA, SWEET'NLOW, or PUREVIA) or a control nutritive sweetener (controls: sucrose or corn syrup). Wild type (Canton S) larvae were initially raised on the standard food, and 0-12 hour old adult flies were transferred to foods containing one non-nutritive sweetener or a control treatment. […] The number of dead flies were scored daily.
# Drosophila melanogaster [2] = assay: Concentration trials of erythritol on fly longevity; type: in vivo
# Protocol: Standard fly foods were prepared as previously described, and then were treated with 2M, 1M, 0.5M and 0.1M concentrations of erythritol, using 0.5M sucrose as control. 0 to 24 hour-old Drosophila were placed on these foods and mortality was recorded daily for 35 days as above. Analyses were conducted with SPSS software v. 20 (IBM corporation 2011). Fly longevity data were analyzed using survival analysis with right-hand censoring of subjects that lived to the end of the study or were lost for reasons other than death. Test were run for differences in survival distributions [Pr(flies alive) versus insect age] using the log-rank (Mantel-Cox) test to make all pairwise comparisons among treatments within each experiment.
# Drosophila melanogaster [3] = assay: Two-way choice experiments, longevity; type: in vivo; details: 30 days
# Protocol: Foods containing 2 M erythritol, 1M erythritol and 1M sucrose were prepared for paired presentations in open choice tests. In each treatment one food type contained 0.05% brilliant blue FCF (Fisher 50-727-25). The blue dye allowed visual confirmation of feeding on the dyed food in the pair. The flies were presented with access to two food choices by using a modified cotton stopper with approximately a 1.5 cm diameter hole to connect each pair of food tubes. […] The final choice treatment was between blue 2M erythritol food and non-blue 1M sucrose food (this treatment provides a comparison with the 1 M erythritol/1 M erythritol treatment as a test of dilution of toxicity by alternative food sources; blue guts would confirm erythritol was being consumed in the presence of sucrose). The number of flies with visible blue gut contents and mortality daily were recorded for 30 days. Analyses were conducted with SPSS software v. 20 (IBM corporation 2011). Fly longevity data were analyzed using survival analysis with right-hand censoring of subjects that lived to the end of the study or were lost for reasons other than death. Test were run for differences in survival distributions [Pr(flies alive) versus insect age] using the log-rank (Mantel-Cox) test to make all pairwise comparisons among treatments within each experiment.
# humans = details: oral consumption; cited from earlier work
smiles,measurement,setting,value
OC[C@@H](O)[C@@H](O)[C@H](O)[C@H](O)CO [D-mannitol],longevity compared to sucrose control,fruit flies,slightly but significantly reduced longevity
OC[C@@H](O)[C@H](O)[C@@H](O)CO [xylitol],longevity compared to sucrose control,fruit flies,did not differ from the control
"OC[C@@H](O)[C@@H](O)CO [erythritol, (2R,3S)-butane-1,2,3,4-tetraol]",mean fly longevity,fruit flies; mean ± SE,4.7 ± 0.15 days
same,"longevity, erythritol versus TRUVIA treatment",Drosophila melanogaster [1]; 0.0238 g/ml,did not differ
same,"longevity compared to PUREVIA, EQUAL, sucrose and corn syrup",Drosophila melanogaster [1]; 0.0238 g/ml of each sweetener,significant decreases in longevity
same,longevity compared to control food containing 0.5M sucrose,"Drosophila melanogaster [2]; 0.1M erythritol in food, observations terminated at 35 days",no significant difference in longevity
same,longevity compared to control food containing 0.5M sucrose,"Drosophila melanogaster [2]; 0.5M erythritol in food, 35 days",significant reductions in longevity
same,longevity compared to control food containing 0.5M sucrose,"Drosophila melanogaster [2]; 1M erythritol in food, 35 days",significant reductions in longevity
same,effect on longevity compared to all other treatments,"Drosophila melanogaster [2]; 2M erythritol in food, 35 days",significant and severe effect on longevity
same,longevity relative to sucrose:sucrose choice,Drosophila melanogaster [3]; choice between 1M sucrose and 1M erythritol,significantly decreased longevity
same,longevity relative to sucrose:sucrose choice,Drosophila melanogaster [3]; choice between 1M sucrose and 2M erythritol,significantly reduced
same,"survival distributions, 2M erythritol/1M sucrose choice versus 1M erythritol/1M erythritol",Drosophila melanogaster [3]; choice chamber,nearly identical
same,tolerability of consumption by humans,humans,very well tolerated
OC[C@@H](O)[C@@H](O[C@H]1O[C@H](CO)[C@@H](O)[C@H](O)[C@H]1O)[C@H](O)[C@@H](O)CO [maltitol],longevity compared to sucrose control,fruit flies,did not differ from the control
